Laboratory results from ChEMBL document CHEMBL4017480, “Discovery and optimization of selective FGFR4 inhibitors via scaffold hopping” (Bioorg Med Chem Lett, 2017).

Assay: Volume of distribution in Balb/c mouse at 0.2 mg/kg, iv administered as single bolus dose by LC-MS/MS analysis
Assay type: ADME, organism-based
Conditions: in vivo

Vd: 0.58 L/kg
Compound: C=CC(=O)N[C@H]1COC[C@H]1Nc1ncc(OCc2c(F)c(OC)cc(OC)c2F)cn1
